Data from the kinase profiling compilation of Christmann-Franck et al. (2016).

What was measured:
Experiment in all cases: Caliper, Mobility shift assay off-chip
PRKCH (human) = PRKCH (human) (UniProt P24723)
DYRK1B (human) = DYRK1B (human) (UniProt Q9Y463)
JAK2 JH1 JH2 (human) = JAK2 JH1 JH2 (human) (UniProt O60674)
EPHB3 (human) = EPHB3 (human) (UniProt P54753)
ZAP70 (human) = ZAP70 (human) (UniProt P43403)
ROCK1 (human) = ROCK1 (human) (UniProt Q13464)
EPHA7 (human) = EPHA7 (human) (UniProt Q15375)
DYRK1A (human) = DYRK1A (human) (UniProt Q13627)
CDK3 (human) = CDK3 (human) (UniProt Q00526)
MARK4 (human) = MARK4 (human) (UniProt Q96L34)
RPS6KA4 KD1 KD2 (human) = RPS6KA4 KD1 KD2 (human) (UniProt O75676)
PRKCG (human) = PRKCG (human) (UniProt P05129)
CHEK2 (human) = CHEK2 (human) (UniProt O96017)
MAPK14 (human) = MAPK14 (human) (UniProt Q16539)
PRKACA (human) = PRKACA (human) (UniProt P17612)
MKNK2 (human) = MKNK2 (human) (UniProt Q9HBH9)
MARK1 (human) = MARK1 (human) (UniProt Q9P0L2)
IRAK4 (human) = IRAK4 (human) (UniProt Q9NWZ3)
ALK (human) = ALK (human) (UniProt Q9UM73)
CSNK1G2 (human) = CSNK1G2 (human) (UniProt P78368)
RET (human) = RET (human) (UniProt P07949)
PDPK1 (human) = PDPK1 (human) (UniProt O15530)
EPHB2 (human) = EPHB2 (human) (UniProt P29323)
PRKCZ (human) = PRKCZ (human) (UniProt Q05513)
SGK1 (human) = SGK1 (human) (UniProt O00141)
WNK2 (human) = WNK2 (human) (UniProt Q9Y3S1)
MAPK1 (human) = MAPK1 (human) (UniProt P28482)
CAMK1D (human) = CAMK1D (human) (UniProt Q8IU85)
TBK1 (human) = TBK1 (human) (UniProt Q9UHD2)
NUAK1 (human) = NUAK1 (human) (UniProt O60285)
ERBB2 (human) = ERBB2 (human) (UniProt P04626); conditions: compound 0.02 µM
MYLK2 (human) = MYLK2 (human) (UniProt Q9H1R3)
CSNK1G1 (human) = CSNK1G1 (human) (UniProt Q9HCP0)
HIPK1 (human) = HIPK1 (human) (UniProt Q86Z02)

EPHB2 (human), sequence (P29323 whole entry, looked up): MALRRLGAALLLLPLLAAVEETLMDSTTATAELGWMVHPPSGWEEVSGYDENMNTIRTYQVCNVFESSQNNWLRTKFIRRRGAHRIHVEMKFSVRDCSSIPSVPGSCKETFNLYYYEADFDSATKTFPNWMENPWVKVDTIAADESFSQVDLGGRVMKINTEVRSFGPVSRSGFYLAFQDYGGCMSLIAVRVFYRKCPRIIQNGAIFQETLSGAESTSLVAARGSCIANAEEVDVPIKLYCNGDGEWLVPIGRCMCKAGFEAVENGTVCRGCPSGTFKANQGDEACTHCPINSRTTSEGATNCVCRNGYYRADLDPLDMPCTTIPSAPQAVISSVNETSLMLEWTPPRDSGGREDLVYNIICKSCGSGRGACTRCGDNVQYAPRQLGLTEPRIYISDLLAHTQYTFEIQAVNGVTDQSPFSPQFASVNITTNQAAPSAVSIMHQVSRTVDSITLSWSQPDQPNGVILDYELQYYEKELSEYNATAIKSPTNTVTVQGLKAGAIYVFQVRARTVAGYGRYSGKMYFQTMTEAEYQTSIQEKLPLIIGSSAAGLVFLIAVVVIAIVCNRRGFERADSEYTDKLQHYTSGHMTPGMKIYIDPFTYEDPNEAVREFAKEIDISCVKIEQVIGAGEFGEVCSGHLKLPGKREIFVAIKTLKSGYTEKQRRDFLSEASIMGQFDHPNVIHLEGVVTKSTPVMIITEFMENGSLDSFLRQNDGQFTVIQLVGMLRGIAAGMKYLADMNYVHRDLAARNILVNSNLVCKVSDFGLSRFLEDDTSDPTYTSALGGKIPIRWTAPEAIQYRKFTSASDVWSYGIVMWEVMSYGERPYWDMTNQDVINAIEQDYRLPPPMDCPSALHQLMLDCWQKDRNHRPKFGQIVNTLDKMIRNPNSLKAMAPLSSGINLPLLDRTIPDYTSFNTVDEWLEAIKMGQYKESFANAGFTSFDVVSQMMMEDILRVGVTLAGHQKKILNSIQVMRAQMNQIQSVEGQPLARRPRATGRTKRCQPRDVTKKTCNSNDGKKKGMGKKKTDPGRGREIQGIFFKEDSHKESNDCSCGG
DYRK1B (human), sequence (Q9Y463 whole entry, looked up): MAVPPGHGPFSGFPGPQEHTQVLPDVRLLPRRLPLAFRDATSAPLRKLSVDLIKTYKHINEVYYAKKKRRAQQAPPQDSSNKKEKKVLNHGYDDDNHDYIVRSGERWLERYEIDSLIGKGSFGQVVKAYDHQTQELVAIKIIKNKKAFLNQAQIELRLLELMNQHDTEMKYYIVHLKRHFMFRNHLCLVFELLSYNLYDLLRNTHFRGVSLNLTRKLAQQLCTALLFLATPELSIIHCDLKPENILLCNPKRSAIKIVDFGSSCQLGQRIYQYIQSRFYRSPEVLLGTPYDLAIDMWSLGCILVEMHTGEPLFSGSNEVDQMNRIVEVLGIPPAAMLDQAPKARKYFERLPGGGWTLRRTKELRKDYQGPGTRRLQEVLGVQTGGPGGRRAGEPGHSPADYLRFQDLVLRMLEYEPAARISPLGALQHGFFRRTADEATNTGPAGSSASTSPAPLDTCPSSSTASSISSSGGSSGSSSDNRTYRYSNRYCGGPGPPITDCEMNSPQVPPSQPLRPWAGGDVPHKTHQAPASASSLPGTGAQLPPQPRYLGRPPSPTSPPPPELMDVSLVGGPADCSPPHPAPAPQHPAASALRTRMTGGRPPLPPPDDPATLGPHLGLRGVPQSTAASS
RPS6KA4 KD1 KD2 (human), sequence (O75676 whole entry, looked up): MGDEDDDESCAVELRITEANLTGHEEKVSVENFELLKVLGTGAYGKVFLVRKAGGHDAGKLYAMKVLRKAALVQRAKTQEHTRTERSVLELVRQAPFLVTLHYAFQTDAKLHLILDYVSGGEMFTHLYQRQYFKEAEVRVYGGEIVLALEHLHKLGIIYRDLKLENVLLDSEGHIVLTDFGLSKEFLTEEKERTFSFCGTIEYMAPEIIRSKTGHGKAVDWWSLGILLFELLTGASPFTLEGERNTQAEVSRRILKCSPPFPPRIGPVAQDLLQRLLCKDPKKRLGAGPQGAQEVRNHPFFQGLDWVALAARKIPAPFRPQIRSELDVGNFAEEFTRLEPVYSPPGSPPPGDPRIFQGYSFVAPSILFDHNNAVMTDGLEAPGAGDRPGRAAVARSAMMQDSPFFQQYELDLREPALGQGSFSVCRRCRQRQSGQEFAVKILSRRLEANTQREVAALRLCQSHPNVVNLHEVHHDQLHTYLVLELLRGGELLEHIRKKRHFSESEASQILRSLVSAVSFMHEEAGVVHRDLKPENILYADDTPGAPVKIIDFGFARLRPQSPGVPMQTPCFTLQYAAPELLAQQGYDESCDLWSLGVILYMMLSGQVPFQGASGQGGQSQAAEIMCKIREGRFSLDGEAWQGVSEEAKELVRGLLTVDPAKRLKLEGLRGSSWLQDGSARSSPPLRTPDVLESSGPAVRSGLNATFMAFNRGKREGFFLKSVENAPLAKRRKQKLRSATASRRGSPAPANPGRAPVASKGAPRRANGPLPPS
JAK2 JH1 JH2 (human), sequence (O60674 whole entry, looked up): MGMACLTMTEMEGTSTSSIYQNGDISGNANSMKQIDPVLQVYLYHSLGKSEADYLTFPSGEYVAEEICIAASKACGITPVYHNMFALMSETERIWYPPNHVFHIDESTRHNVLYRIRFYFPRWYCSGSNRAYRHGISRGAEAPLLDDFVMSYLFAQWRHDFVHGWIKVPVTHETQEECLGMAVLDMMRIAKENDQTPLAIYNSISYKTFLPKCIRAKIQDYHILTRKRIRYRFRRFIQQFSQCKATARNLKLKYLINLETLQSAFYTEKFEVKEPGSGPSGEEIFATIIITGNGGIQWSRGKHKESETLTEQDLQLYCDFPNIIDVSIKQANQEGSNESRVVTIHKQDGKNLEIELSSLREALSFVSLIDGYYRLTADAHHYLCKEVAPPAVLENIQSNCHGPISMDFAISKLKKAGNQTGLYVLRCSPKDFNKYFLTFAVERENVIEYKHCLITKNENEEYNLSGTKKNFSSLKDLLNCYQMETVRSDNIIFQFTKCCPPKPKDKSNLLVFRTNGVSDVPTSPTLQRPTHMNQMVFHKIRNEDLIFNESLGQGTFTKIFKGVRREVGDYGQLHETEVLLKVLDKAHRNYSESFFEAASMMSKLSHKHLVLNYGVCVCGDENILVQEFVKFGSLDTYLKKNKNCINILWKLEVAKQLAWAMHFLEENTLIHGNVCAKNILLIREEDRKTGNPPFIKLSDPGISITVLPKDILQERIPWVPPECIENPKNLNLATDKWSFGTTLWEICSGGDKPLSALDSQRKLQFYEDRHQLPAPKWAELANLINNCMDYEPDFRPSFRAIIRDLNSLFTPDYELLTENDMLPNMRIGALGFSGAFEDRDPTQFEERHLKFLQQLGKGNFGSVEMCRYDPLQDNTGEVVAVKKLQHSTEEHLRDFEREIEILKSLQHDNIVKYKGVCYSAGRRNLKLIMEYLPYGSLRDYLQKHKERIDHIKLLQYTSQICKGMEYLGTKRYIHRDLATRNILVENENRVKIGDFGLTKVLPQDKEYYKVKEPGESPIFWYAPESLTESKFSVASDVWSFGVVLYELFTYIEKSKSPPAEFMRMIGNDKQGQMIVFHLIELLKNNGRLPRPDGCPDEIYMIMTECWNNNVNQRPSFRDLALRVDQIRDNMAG
MARK1 (human), sequence (Q9P0L2 whole entry, looked up): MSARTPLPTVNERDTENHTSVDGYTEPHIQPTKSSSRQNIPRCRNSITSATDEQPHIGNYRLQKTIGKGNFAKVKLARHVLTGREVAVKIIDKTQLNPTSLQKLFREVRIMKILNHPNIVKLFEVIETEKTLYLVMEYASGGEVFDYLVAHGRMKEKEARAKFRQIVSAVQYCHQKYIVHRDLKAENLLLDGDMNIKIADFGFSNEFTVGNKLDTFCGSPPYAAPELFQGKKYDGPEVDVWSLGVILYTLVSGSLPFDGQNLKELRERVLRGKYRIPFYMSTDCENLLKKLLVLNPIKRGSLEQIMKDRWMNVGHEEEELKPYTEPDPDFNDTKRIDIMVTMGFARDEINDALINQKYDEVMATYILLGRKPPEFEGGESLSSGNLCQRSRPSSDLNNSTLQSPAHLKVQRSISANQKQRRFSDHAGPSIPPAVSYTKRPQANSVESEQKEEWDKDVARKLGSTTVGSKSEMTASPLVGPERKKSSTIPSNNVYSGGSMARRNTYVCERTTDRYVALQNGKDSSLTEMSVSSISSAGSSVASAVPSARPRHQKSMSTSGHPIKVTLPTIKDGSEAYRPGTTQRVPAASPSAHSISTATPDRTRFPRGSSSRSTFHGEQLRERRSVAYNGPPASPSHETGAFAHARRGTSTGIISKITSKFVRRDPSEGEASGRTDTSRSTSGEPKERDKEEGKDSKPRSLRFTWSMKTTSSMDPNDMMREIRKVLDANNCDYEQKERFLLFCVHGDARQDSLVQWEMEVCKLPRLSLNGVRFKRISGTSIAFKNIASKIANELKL
ZAP70 (human), sequence (P43403 whole entry, looked up): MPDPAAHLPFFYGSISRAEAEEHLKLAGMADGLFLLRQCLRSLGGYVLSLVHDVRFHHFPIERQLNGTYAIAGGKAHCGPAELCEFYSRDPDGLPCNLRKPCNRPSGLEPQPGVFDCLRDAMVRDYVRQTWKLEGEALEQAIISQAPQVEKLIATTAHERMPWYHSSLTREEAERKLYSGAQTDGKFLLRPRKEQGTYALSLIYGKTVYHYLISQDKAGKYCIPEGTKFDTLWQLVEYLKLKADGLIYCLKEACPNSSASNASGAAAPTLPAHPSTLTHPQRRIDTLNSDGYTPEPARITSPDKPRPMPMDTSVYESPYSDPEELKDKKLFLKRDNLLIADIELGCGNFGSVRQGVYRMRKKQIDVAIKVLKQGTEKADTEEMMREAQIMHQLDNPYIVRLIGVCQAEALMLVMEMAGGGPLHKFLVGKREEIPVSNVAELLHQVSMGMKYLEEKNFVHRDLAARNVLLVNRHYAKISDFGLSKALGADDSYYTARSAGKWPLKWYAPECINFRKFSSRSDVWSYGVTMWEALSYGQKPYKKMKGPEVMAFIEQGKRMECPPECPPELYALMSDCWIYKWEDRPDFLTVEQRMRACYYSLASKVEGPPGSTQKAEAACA

COc1cc2c(Oc3ccc4[nH]c(C)cc4c3F)ncnc2cc1OCCCN1CCCC1
inhibition (PRKCH (human); compound 0.02 µM): 6%
inhibition (PRKCH (human); compound 0.2 µM): 4.7%
inhibition (DYRK1B (human); compound 0.02 µM): 6.7%
inhibition (DYRK1B (human); compound 0.2 µM): -1.1%
inhibition (JAK2 JH1 JH2 (human); compound 0.02 µM): 4.5%
inhibition (JAK2 JH1 JH2 (human); compound 0.2 µM): 4.5%
inhibition (EPHB3 (human); compound 0.02 µM): -2.6%
inhibition (EPHB3 (human); compound 0.2 µM): -1.3%
inhibition (ZAP70 (human); compound 0.02 µM): 3.1%
inhibition (ZAP70 (human); compound 0.2 µM): 3.4%
inhibition (ROCK1 (human); compound 0.02 µM): -1.3%
inhibition (ROCK1 (human); compound 0.2 µM): -1.3%
inhibition (EPHA7 (human); compound 0.02 µM): -2.4%
inhibition (EPHA7 (human); compound 0.2 µM): 23.5%
inhibition (DYRK1A (human); compound 0.02 µM): 10%
inhibition (DYRK1A (human); compound 0.2 µM): -4%
inhibition (CDK3 (human); compound 0.02 µM): -3.3%
inhibition (CDK3 (human); compound 0.2 µM): -1.1%
inhibition (MARK4 (human); compound 0.02 µM): -7.1%
inhibition (MARK4 (human); compound 0.2 µM): -7.3%
inhibition (RPS6KA4 KD1 KD2 (human); compound 0.02 µM): -4.9%
inhibition (RPS6KA4 KD1 KD2 (human); compound 0.2 µM): 2.6%
inhibition (PRKCG (human); compound 0.02 µM): 3.8%
inhibition (PRKCG (human); compound 0.2 µM): 4.1%
inhibition (CHEK2 (human); compound 0.02 µM): -1.2%
inhibition (CHEK2 (human); compound 0.2 µM): 3.6%
inhibition (MAPK14 (human); compound 0.02 µM): -4.9%
inhibition (MAPK14 (human); compound 0.2 µM): -4.9%
inhibition (PRKACA (human); compound 0.02 µM): -2.9%
inhibition (PRKACA (human); compound 0.2 µM): -4.8%
inhibition (MKNK2 (human); compound 0.02 µM): -3.7%
inhibition (MKNK2 (human); compound 0.2 µM): 1.2%
inhibition (MARK1 (human); compound 0.02 µM): -2.2%
inhibition (MARK1 (human); compound 0.2 µM): 2.7%
inhibition (IRAK4 (human); compound 0.02 µM): -5.6%
inhibition (IRAK4 (human); compound 0.2 µM): -5.6%
inhibition (ALK (human); compound 0.02 µM): 5.8%
inhibition (ALK (human); compound 0.2 µM): 10.6%
inhibition (CSNK1G2 (human); compound 0.02 µM): -0.7%
inhibition (CSNK1G2 (human); compound 0.2 µM): -2.1%
inhibition (RET (human); compound 0.02 µM): 76.8%
inhibition (RET (human); compound 0.2 µM): 98.7%
inhibition (PDPK1 (human); compound 0.02 µM): -2.1%
inhibition (PDPK1 (human); compound 0.2 µM): -4.8%
inhibition (EPHB2 (human); compound 0.02 µM): -4.3%
inhibition (EPHB2 (human); compound 0.2 µM): 8.7%
inhibition (PRKCZ (human); compound 0.02 µM): 10.1%
inhibition (PRKCZ (human); compound 0.2 µM): 1.5%
inhibition (SGK1 (human); compound 0.02 µM): 5.2%
inhibition (SGK1 (human); compound 0.2 µM): 0.4%
inhibition (WNK2 (human); compound 0.02 µM): 3.8%
inhibition (WNK2 (human); compound 0.2 µM): 2.8%
inhibition (MAPK1 (human); compound 0.02 µM): -6.5%
inhibition (MAPK1 (human); compound 0.2 µM): -9%
inhibition (CAMK1D (human); compound 0.02 µM): 0.3%
inhibition (CAMK1D (human); compound 0.2 µM): -0.6%
inhibition (TBK1 (human); compound 0.02 µM): -1.8%
inhibition (TBK1 (human); compound 0.2 µM): -1.6%
inhibition (NUAK1 (human); compound 0.02 µM): 8.9%
inhibition (NUAK1 (human); compound 0.2 µM): -13.6%
inhibition (ERBB2 (human)): 3.9%
inhibition (MYLK2 (human); compound 0.02 µM): -2.3%
inhibition (MYLK2 (human); compound 0.2 µM): -2.4%
inhibition (CSNK1G1 (human); compound 0.02 µM): -2%
inhibition (CSNK1G1 (human); compound 0.2 µM): -0.6%
inhibition (HIPK1 (human); compound 0.02 µM): -5.7%
inhibition (HIPK1 (human); compound 0.2 µM): -1%
